Assay results reported in paper PMC8229129, “Local Colonic Administration of a Serine Protease Inhibitor Improves Post-Inflammatory Visceral Hypersensitivity in Rats” (Pharmaceutics, 2021).

Experiments:
colonic mucosal damage = assay: Macroscopic score of mucosal damage; type: in vivo, Sprague–Dawley rats; conditions: for Macroscopy, Day of VMR: score 0–10, mean ± SEM, n = 8
Description: After VMR and compliance measurements, the rat was sacrificed by exsanguination under pentobarbital anesthesia (45 mg/kg, i.p.). The colon was excised, rinsed with Krebs solution, opened along the mesenteric border, and evaluated visually for the presence of mucosal damage using a previously validated scoring system (total score 0–10, Supplementary Table S2).

cathepsin G = system: cathepsin G; design: method as in PMID 29911328; conditions: in vitro; cited from earlier work
matriptase = system: matriptase; design: method as in PMID 29911328; conditions: in vitro; cited from earlier work
[1] = system: elastase-like, cathepsin G and kallikrein activities in colonic tissue; assay: Other specific proteolytic activities in colonic tissue of post-colitis rats after intracolonic administration; type: in vivo, Sprague–Dawley rats; conditions: 5 mg/kg intracolonic, 90 min
Description: (§1) The serine protease inhibitor UAMC-00050 (0.1–1.0–2.5–5.0 mg/kg, dissolved in a volume of 200 µL) or its vehicle (5% DMSO in H2O) was delivered colonically using a flexible catheter (18 G, length 4.5 cm) under short-lasting isoflurane anesthesia (5.0% induction, 1.5% maintenance). To prevent expulsion of the enema, animals were held in a Trendelenburg position for 90 s. Doses for intracolonic administration were based on the doses known to be effective via an i.p. administration and adapted afterwards based on preliminary results.
(§2) Trypsin-like, chymotrypsin-like, cathepsin G, elastase-like, and kallikrein activities were determined in colon tissue and fecal samples to profile serine protease activity. […]
(§3) Boc-Gln-Ala-Arg-AMC (75 µM) and n-Tosyl-Gly-Pro-Arg-AMC (100 µM) in 50 mM Tris-HCl pH 8.0 containing 120 mM NaCl were used to measure the trypsin-like activity. […] The fluorescence was measured during 20 min at 37 °C on a Tecan Infinite F200 Pro microtiter plate reader. The other activities were assessed in a similar assay, using the substrates mentioned below. Chymotrypsin-like and kallikrein activity were measured with Suc-Ala-Ala-Pro-Phe-AMC (0.45 mM) and H-Pro-Phe-Arg-AMC (0.45 mM), respectively. Elastase-like activity was measured using two assays, one using Suc-Ala-Ala-Pro-Val-AMC as a substrate and the other using Suc-Ala-Ala-Ala-AMC (both 0.45 mM). […]

inflammatory parameters = system: inflammatory parameters; design: method as in PMID 29911328; conditions: post-inflammatory model, intraperitoneal treatment; cited from earlier work
[2] = system: trypsin-like, chymotrypsin-like, cathepsin G, elastase-like, and kallikrein activities in colon tissue; assay: Proteolytic activities in colonic tissue of control rats after intracolonic administration; type: in vivo, Sprague–Dawley rats; conditions: 5 mg/kg intracolonic
Description: as §1, §2, §3

[3] = system: trypsin-like activity in colonic tissue; assay: Trypsin-like activity in colonic tissue after intracolonic administration (fluorogenic substrates); type: in vivo, Sprague–Dawley rats; conditions: post-colitis rats, 5 mg/kg intracolonic, colon harvested 90 min after administration, median (IQR), n = 12; vehicle 1.08 (1.19), p < 0.01
Description: as §1, §2, §3

thrombin = system: thrombin; design: method as in PMID 29911328; conditions: in vitro; cited from earlier work
pancreatic elastase = pancreatic elastase (Homo sapiens, UniProt Q9UNI1); assay: Inhibition of pancreatic elastase by UAMC-00050 (IC50); type: biochemical; conditions: in vitro
pancreatic elastase, sequence (Q9UNI1 19-258): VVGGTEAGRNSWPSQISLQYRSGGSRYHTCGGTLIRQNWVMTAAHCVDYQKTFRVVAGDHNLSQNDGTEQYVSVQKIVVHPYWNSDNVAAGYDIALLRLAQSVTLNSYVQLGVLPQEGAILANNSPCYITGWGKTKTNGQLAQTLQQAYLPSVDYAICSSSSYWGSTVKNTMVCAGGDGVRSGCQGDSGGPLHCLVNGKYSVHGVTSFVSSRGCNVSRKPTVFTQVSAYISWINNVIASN
Description: Here, the potency of UAMC-00050 to inhibit two other serine proteases, chymotrypsin and pancreatic elastase, with specificity was determined.

dry eye syndrome = system: dry eye syndrome; design: method as in PMID 33057006; conditions: rat model of dry eye syndrome; cited from earlier work
[4] = system: colonic mucosal inflammation; assay: Colonoscopic inflammatory score; type: in vivo, Sprague–Dawley rats; conditions: for Colonoscopy, Day of VMR: score 0–19, mean ± SEM, n = 8
Description: An in vivo colonoscopy was performed to assess the presence and extent of TNBS-induced colitis, as previously described. Briefly, rats were anesthetized (ketamine/xylazine, 35/5 mg/kg, i.p.) and placed in a supine position. The lubricated tip of a pediatric upper gastrointestinal endoscope (Olympus GIF-N30) was carefully introduced into the colorectum and advanced until the hepatic flexure was reached. Then, the endoscope was slowly withdrawn while assessing the mucosal damage using a validated and standardized scoring system (Supplementary Table S1). In brief, a total inflammatory score (0–19) was calculated based on the extent of ulcerations, as well as on the presence of edema, bleeding, and colonic stenosis.

neutrophil elastase = system: neutrophil elastase; design: method as in PMID 29911328; conditions: in vitro; cited from earlier work
kallikrein 2 = system: kallikrein 2; design: method as in PMID 29911328; conditions: in vitro; cited from earlier work
[5] = system: inflammatory infiltrate and mucosal architecture of distal colon; assay: Microscopic score of the distal colon; type: in vivo, Sprague–Dawley rats; conditions: for Microscopy, Day of VMR: score 0–10, mean ± SEM, n = 8
Description: For microscopic evaluation, a representative section of the distal colon (1 cm^2) was fixed in 4% formaldehyde for 24 h and embedded in paraffin for hematoxylin and eosin staining. Transverse sections (5 µm) were scored for the presence of inflammatory infiltrate and alterations in mucosal architecture, as previously described (total score 0–10, Supplementary Table S3).

[6] = control rats, 5.0 mg/kg intracolonic
[7] = post-colitis rats, 0.1 mg/kg intracolonic
[8] = post-colitis rats, 1.0 mg/kg intracolonic
[9] = post-colitis rats, 2.5 mg/kg intracolonic
[10] = post-colitis rats, 5.0 mg/kg intracolonic
[11] = single intracolonic administration, control and post-colitis rats

SMILES: CC(=O)Nc1ccc(OP(=O)(Oc2ccc(NC(C)=O)cc2)C(Cc2ccc(N=C(N)N)cc2)NC(=O)OCc2ccccc2)cc1.Cl (centres unmarked) [UAMC-00050]
- Macroscopy, Day of VMR (colonic mucosal damage; [6]): 0.0 ± 0.0
- Macroscopy, Day of VMR (colonic mucosal damage; [7]): 0.0 ± 0.0
- Macroscopy, Day of VMR (colonic mucosal damage; [8]): 0.0 ± 0.0
- Macroscopy, Day of VMR (colonic mucosal damage; [9]): 0.0 ± 0.0
- Macroscopy, Day of VMR (colonic mucosal damage; [10]): 0.0 ± 0.0
- Effect on macroscopic evaluation of mucosal damage (colonic mucosal damage; [11]): no effect
- inhibition of cathepsin G (cathepsin G): efficiently inhibits
- inhibition of matriptase (matriptase): efficiently inhibits
- Effect on the other specific proteolytic activities (elastase-like, cathepsin G, kallikrein) in colonic tissue [1]: No effect
- Effects on inflammatory parameters (inflammatory parameters): no effects
- Effect on proteolytic activities in colonic tissue [2]: did not alter
- Trypsin-like activity in colonic tissue (Tos-Gly-Pro-Arg-AMC) [3]: 0.23 (0.18) U/g
- inhibition of thrombin (thrombin): efficiently inhibits
- IC50 (pancreatic elastase): > 10 µM
- Effect on inflammation (dry eye syndrome): anti-inflammatory effects
- Colonoscopy, Day of VMR [4, 6]: 0.0 ± 0.0
- Colonoscopy, Day of VMR [4, 7]: 0.0 ± 0.0
- Colonoscopy, Day of VMR [4, 8]: 0.0 ± 0.0
- Colonoscopy, Day of VMR [4, 9]: 0.0 ± 0.0
- Colonoscopy, Day of VMR [4, 10]: 0.0 ± 0.0
- Effect on colonoscopic inflammatory scores [4, 11]: no effect
- inhibition of neutrophil elastase (neutrophil elastase): did not efficiently inhibit
- inhibition of kallikrein 2 (kallikrein 2): efficiently inhibits
- Microscopy, Day of VMR [5, 6]: 0.8 ± 0.4
- Microscopy, Day of VMR [5, 7]: 0.4 ± 0.4
- Microscopy, Day of VMR [5, 8]: 0.8 ± 0.4
- Microscopy, Day of VMR [5, 9]: 0.5 ± 0.4
- Microscopy, Day of VMR [5, 10]: 0.6 ± 0.4
- Effect on microscopic evaluation of mucosal damage [5, 11]: no effect
